Data set [1] addresses T1, CYP3A4 (Homo sapiens, UniProt P08684).
T1 construct: tissue BD-Gentest 452117; host or cells: human liver microsomes
As to the kind of experiment: CYP inhibition assay in human liver microsome, CYP3A4. It counts as in vitro ADME. The conditions noted are these: percentage inhibition, substrate Midazolam 5 μM. As to the method: This is a high throughput screening assay used for assessment of reversible inhibition of CYP2C9, CYP2D6, and CYP3A4 activity of test compounds in human liver microsome (HLM) in early discovery stage.
10 mM DMSO stock solutions of test compounds were diluted in DMSO to generate 2 mM intermediate stock solution. 250 nL of intermediate stock solution were transferred in duplicate into 3 separate 384 well microtitre plates (assay-ready plates). A mixture of HLM and each substrate was made up. 45 μL of HLM substrate mix was then transferred to each well of an assay ready plate and mixed. The negative (solvent) and positive controls (standard inhibitor for each CYP) were included in each assay ready plate. The assay ready plate was warmed to 37° C. in an incubator over 10 minutes. 5 μL pre-warmed NADPH regenerating system was added to each incubation well to start the reaction. Final incubation volume was 50 μL. The assay plate then was placed back in the 37° C. incubator. After incubation (10 minutes for CYP2D6) for 5 minutes, incubates were quenched by addition of 50 μL 100% acetonitrile containing internal standards (400 ng/mL 13C6-4′-OH-Diclofenac, 20 ng/mL D3-Dextrorphan and 20 ng/mL D4-1′OH-Midazolam). The supernatants were collected for RapidFire/MS/MS analysis.
RapidFire online solid phase extraction/sample injection system (Agilent) coupled with API4000 triple quadrupole mass spectrometer (AB Sciex) were used for sample analysis. The mobile phase composed of acetonitrile and water supplemented with 0.1% formic acid. A C4 solid phase extraction cartridge is used for sample separation. MS detection is achieved in positive ion MRM mode.
Peak areas for substrate, metabolite and internal standard are determined using the RapidFire integrator software (version 3.6.12009.12296). Peak area ratios (PAR) of metabolite and internal standard (stable-labelled metabolite) are then calculated. The measurement window for each experiment is then defined:
PAR (0% activity)=average PAR for all incubations containing concentrated inhibitor;
Par (100% activity)=average PAR for all incubations containing no inhibitor (DMSO controls);
% Activity (test inhibitor)=[PAR(test inhibitor)−PAR(0% activity)/PAR(100% activity)−PAR(0% activity)];
% Inhibition (test inhibitor)=100−% Activity (test inhibitor).
For orientation: Liver microsomes are a subcellular fraction often used to study metabolism.

Data set [2] deals with T2, hERG K+ channel (Homo sapiens, UniProt Q12809).
T2 construct: expressed in transfected cells; host or cells: CHO (Chinese hamster ovary), CHOhERG
Description: hERG channel inhibition assay (patch-clamp, CHOhERG cells). The conditions noted are these: for IC50 / IC20: CHOhERG cells, whole-cell patch-clamp; for IC20: human, CHO cells stably expressing hERG (CHOhERG); for hERG IC20/TLR7 IC50 / hERG IC20/TLR8 IC50 / hERG IC20/TLR9 IC50: safety ratio. The data set is classed as cell-based. As to the method: The hERG K^+ channels were cloned in humans and stably expressed in a CHO (Chinese hamster ovary) cell line. CHOhERG cells were used for patch-clamp (voltage-clamp, whole-cell) experiments. Cells were stimulated by a voltage pattern to activate hERG channels and conduct IKhERG currents (rapid delayed outward rectifier potassium current of the hERG channel). After the cells were stabilized for a few minutes, the amplitude and kinetics of IKhERG were recorded at a stimulation frequency of 0.1 Hz, (6 bpm). Thereafter, the test compound was added to the preparation at increasing concentrations. For each concentration, an attempt was made to reach a steady-state effect, usually, this was achieved within 3-10 min at which time the next highest concentration was applied. The amplitude and kinetics of IKhERG are recorded in each concentration of the drug which were compared to the control values (taken as 100%). (references: Redfern W S, Carlsson L, Davis A S, Lynch W G, MacKenzie I, Palethorpe S, Siegl P K, Strang I, Sullivan A T, Wallis R, Camm A J, Hammond T G. 2003; Relationships between preclinical cardiac electrophysiology, clinical QT interval prolongation and torsade de pointes for a broad range of drugs: evidence for a provisional safety margin in drug development. Cardiovasc. Res. 58:32-45, Sanguinetti MC, Tristani-Firouzi M. 2006; hERG potassium channels and cardiac arrhythmia. Nature 440:463-469, Webster R, Leishman D, Walker D. 2002; Towards a drug concentration effect relationship for QT prolongation and torsades de pointes. Curr. Opin. Drug Discov. Devel. 5:116-26).

Each structure is given as a SMILES string.

The values below come from US12421229B2, “Hydropyrido[1,2-α]pyrazine compounds for the treatment of autoimmune disease” (Hoffmann-La Roche Inc., priority 2019, dated 2025).

T2 sequence (Q12809 whole entry): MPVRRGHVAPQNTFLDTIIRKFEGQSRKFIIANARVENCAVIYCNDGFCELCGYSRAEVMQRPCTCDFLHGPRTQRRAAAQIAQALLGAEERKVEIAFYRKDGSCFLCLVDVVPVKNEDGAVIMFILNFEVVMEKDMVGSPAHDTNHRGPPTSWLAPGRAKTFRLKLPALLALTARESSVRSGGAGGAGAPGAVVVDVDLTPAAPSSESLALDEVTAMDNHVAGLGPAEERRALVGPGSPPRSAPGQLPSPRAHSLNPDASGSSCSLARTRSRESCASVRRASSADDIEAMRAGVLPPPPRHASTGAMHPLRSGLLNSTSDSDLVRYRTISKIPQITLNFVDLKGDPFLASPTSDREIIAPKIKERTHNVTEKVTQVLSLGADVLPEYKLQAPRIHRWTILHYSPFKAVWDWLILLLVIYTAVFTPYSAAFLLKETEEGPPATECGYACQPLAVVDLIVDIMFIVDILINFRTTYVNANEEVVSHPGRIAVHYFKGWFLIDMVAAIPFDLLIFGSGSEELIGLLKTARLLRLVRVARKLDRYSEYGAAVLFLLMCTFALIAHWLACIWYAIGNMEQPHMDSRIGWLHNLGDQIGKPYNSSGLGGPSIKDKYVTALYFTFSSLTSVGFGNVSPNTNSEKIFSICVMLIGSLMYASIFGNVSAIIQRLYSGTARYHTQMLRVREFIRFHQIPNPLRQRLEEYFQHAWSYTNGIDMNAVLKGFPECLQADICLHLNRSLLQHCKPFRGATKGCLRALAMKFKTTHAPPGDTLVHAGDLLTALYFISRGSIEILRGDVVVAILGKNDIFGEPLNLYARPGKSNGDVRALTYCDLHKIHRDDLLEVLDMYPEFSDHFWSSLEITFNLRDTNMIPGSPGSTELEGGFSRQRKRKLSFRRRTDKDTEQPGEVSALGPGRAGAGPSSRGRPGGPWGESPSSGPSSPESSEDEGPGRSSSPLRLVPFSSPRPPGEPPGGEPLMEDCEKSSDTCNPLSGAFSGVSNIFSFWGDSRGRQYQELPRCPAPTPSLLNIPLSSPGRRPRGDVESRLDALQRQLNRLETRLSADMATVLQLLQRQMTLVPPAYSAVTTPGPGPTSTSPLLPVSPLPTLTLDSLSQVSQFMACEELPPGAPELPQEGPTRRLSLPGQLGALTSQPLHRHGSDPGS
T1 sequence (P08684 whole entry): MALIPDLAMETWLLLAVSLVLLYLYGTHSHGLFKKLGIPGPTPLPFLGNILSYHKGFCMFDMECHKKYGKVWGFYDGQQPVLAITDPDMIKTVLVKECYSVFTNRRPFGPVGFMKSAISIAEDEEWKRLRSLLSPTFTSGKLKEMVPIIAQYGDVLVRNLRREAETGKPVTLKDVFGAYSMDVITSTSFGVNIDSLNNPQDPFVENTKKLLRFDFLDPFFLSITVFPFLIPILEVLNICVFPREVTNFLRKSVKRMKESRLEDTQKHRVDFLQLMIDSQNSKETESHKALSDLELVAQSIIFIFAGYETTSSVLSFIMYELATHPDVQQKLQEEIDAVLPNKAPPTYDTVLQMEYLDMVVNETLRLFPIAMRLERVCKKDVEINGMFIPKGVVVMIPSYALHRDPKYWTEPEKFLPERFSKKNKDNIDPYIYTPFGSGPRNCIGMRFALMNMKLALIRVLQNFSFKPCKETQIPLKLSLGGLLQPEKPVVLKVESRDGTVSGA

As for `CO[C@H]1CN(c2ccc([C@@H]3CCN4[C@@H](C3)CN(c3ccc(C#N)c5ncccc35)C[C@H]4C)cn2)C[C@H]1N` [Example 12, 5-[(4R,8R,9aS)-8-[6-[(3R,4S)-3-amino-4-methoxy-pyrrolidin-1-yl]-3-pyridyl]-4-methyl-1,3,4,6,7,8,9,9a-octahydropyrido[1,2-a]pyrazin-2-yl]quinoline-8-carbonitrile], the “CYP (%) 3A4” value in data set [1] turned out to be 37.5%.

Take `CO[C@@H]1CN(c2ccc([C@@H]3CCN4[C@@H](C3)CN(c3ccc(C#N)c5ncccc35)C[C@H]4C)cn2)C[C@H]1N` [Example 14, 5-[(4R,8R,9aS)-8-[6-[(3R,4R)-3-amino-4-methoxy-pyrrolidin-1-yl]-3-pyridyl]-4-methyl-1,3,4,6,7,8,9,9a-octahydropyrido[1,2-a]pyrazin-2-yl]quinoline-8-carbonitrile]: in data set [1], the “CYP (%) 3A4” value was 19.5%.

For the compound `[2H]c1ccc2c(N3C[C@@H]4C[C@H](N5CCN(c6ccncc6)CC5)CCN4[C@H](C)C3)ccc(C#N)c2n1` [Example 37, 5-[(4R,8R,9aS)-4-methyl-8-[4-(4-pyridyl)piperazin-1-yl]-1,3,4,6,7,8,9,9a-octahydropyrido[1,2-a]pyrazin-2-yl]-2-deuterio-quinoline-8-carbonitrile], the “CYP (%) 3A4” value in data set [1] was 32.5%.

As usually defined, the IC50 is the concentration that inhibits the measured activity by half. What is called IC20 is the concentration at which the effect reaches the 20% level. Read a low IC20 as greater potency. Consider `CO[C@H]1CN(c2ccc([C@@H]3CCN4[C@@H](C3)CN(c3ccc(C#N)c5ncccc35)C[C@H]4C)cn2)C[C@@H]1N` [Example 6, 5-[(4R,8R,9aS)-8-[6-[(3S,4S)-3-amino-4-methoxy-pyrrolidin-1-yl]-3-pyridyl]-4-methyl-1,3,4,6,7,8,9,9a-octahydropyrido[1,2-a]pyrazin-2-yl]quinoline-8-carbonitrile], for which the “CYP (%) 3A4” value in data set [1] stood at 11%. Moreover, in data set [2], the IC50 is more than 20 µM, the IC20 was 9.2 µM, the “hERG IC20/TLR7 IC50” value came to 224.4 and the “hERG IC20/TLR8 IC50” value was 195.7. For the same compound, in data set [2], the “hERG IC20/TLR9 IC50” value came to 105.7.

On to `C[C@@H]1CN(c2ccc(C#N)c3ncccc23)C[C@@H]2C[C@H](c3ccc(N4CCNCC4)nc3)CCN21` (stereo in doubt) [Example 2, 5-[(4R,8R)-4-methyl-8-(6-piperazin-1-yl-3-pyridyl)-1,3,4,6,7,8,9,9a-octahydropyrido[1,2-a]pyrazin-2-yl]quinoline-8-carbonitrile], for which the “CYP (%) 3A4” value in data set [1] is listed as 38%.

On to `C[C@@H]1CN(c2ccc(C#N)c3ncccc23)C[C@@H]2C[C@H](c3ccc([C@@H]4CNCCO4)cc3)CCN21` [Example 27, 5-[(4R,8R,9aS)-4-methyl-8-[4-[(2R)-morpholin-2-yl]phenyl]-1,3,4,6,7,8,9,9a-octahydropyrido[1,2-a]pyrazin-2-yl]quinoline-8-carbonitrile], for which the “CYP (%) 3A4” value in data set [1] is on record as 37%.

For `[2H]c1ccc2c(N3C[C@@H]4C[C@H](Nc5ccc(C[C@H]6CNCCO6)cc5)CCN4[C@H](C)C3)ccc(C#N)c2n1` [Example 34, 5-[(4R,8R,9aS)-4-methyl-8-[4-[[(2S)-morpholin-2-yl]methyl]anilino]-1,3,4,6,7,8,9,9a-octahydropyrido[1,2-a]pyrazin-2-yl]-2-deuterio-quinoline-8-carbonitrile], the “CYP (%) 3A4” value in data set [1] was 3.5%. In addition, in data set [2], the IC50 was more than 20 µM, the IC20 is more than 10 µM, the “hERG IC20/TLR7 IC50” value is more than 212.7 and the “hERG IC20/TLR8 IC50” value is on record as more than 250. For the same compound, the “hERG IC20/TLR9 IC50” value in data set [2] is on record as more than 175.4.

Regarding `C[C@@H]1CN(c2ccc(C#N)c3ncccc23)C[C@@H]2C[C@H](N3CC(c4ccc(N5CCNCC5)cc4)C3)CCN21` [Example 9, 5-[(4R,8R,9aS)-4-methyl-8-[3-(4-piperazin-1-ylphenyl)azetidin-1-yl]-1,3,4,6,7,8,9,9a-octahydropyrido[1,2-a]pyrazin-2-yl]quinoline-8-carbonitrile], the “CYP (%) 3A4” value in data set [1] is 9.5%. Besides, in data set [2], the IC50 is more than 20 µM, the IC20 is more than 10 µM, the “hERG IC20/TLR7 IC50” value was more than 370.4 and the “hERG IC20/TLR8 IC50” value is more than 277.8. In data set [2], the “hERG IC20/TLR9 IC50” value is reported as more than 312.5.

Take `C[C@@H]1CN(c2ccc(C#N)c3ncccc23)C[C@@H]2C[C@H](Nc3ccc([C@H]4CNCCO4)cc3)CCN21` [Example 20, 5-[(4R,8R,9aS)-4-methyl-8-[4-[(2S)-morpholin-2-yl]anilino]-1,3,4,6,7,8,9,9a-octahydropyrido[1,2-a]pyrazin-2-yl]quinoline-8-carbonitrile]: in data set [2], the IC50 was more than 20 µM, the IC20 was more than 10 µM, the “hERG IC20/TLR7 IC50” value was more than 769.2 and the “hERG IC20/TLR8 IC50” value is given as more than 200. Further, the “hERG IC20/TLR9 IC50” value in data set [2] was more than 200.

Regarding `C[C@@H]1CN(c2ccc(C#N)c3ncccc23)C[C@@H]2C[C@@H](Oc3ccc(N4CCNCC4)cn3)CCN21` [Example 11, 5-[(4R,8S,9aS)-4-methyl-8-[(5-piperazin-1-yl-2-pyridyl)oxy]-1,3,4,6,7,8,9,9a-octahydropyrido[1,2-a]pyrazin-2-yl]quinoline-8-carbonitrile], the “CYP (%) 3A4” value in data set [1] is on record as 12%. In data set [2], the IC50 is more than 20 µM, the IC20 is more than 10 µM, the “hERG IC20/TLR7 IC50” value is given as more than 217.4 and the “hERG IC20/TLR8 IC50” value is recorded as more than 666.6. Further, in data set [2], the “hERG IC20/TLR9 IC50” value is more than 111.1.

As for `C[C@@H]1CN(c2ccc(C#N)c3ncccc23)C[C@@H]2C[C@H](c3ccc(N4C[C@@H](N)[C@@H](F)C4)nc3)CCN21` [Example 19, 5-[(4R,8R,9aS)-8-[6-[(3R,4S)-3-amino-4-fluoro-pyrrolidin-1-yl]-3-pyridyl]-4-methyl-1,3,4,6,7,8,9,9a-octahydropyrido[1,2-a]pyrazin-2-yl]quinoline-8-carbonitrile], the “CYP (%) 3A4” value in data set [1] was 30%.

As for `C[C@@H]1CN(c2ccc(C#N)c3ncccc23)C[C@@H]2C[C@H](Nc3ccc(C[C@@H]4CNCCO4)cc3)CCN21` [Example 21, 5-[(4R,8R,9aS)-4-methyl-8-[4-[[(2R)-morpholin-2-yl]methyl]anilino]-1,3,4,6,7,8,9,9a-octahydropyrido[1,2-a]pyrazin-2-yl]quinoline-8-carbonitrile], the “CYP (%) 3A4” value in data set [1] worked out at 15.5%. In data set [2], the IC50 is more than 20 µM, the IC20 was more than 10 µM, the “hERG IC20/TLR7 IC50” value is reported as more than 500 and the “hERG IC20/TLR8 IC50” value is more than 185.2. The “hERG IC20/TLR9 IC50” value in data set [2] was more than 116.3.
